For one series, the target named is GABAa receptor. Kind of series: GABAa receptor binding assay (3H-RO15-1788 displacement). The settings on record: rat cortical tissue homogenate; radioligand 0.5 nM 3H-RO15-1788 [3H-Flumazenil]; 30 min at 4° C. The protocol: The pharmaceutical utility of compounds of this invention are indicated by the following assay for GABAa receptor binding activity.
Assays are carried out as described in Thomas and Tallman (J. Bio. Chem. 156:9838-9842 , J. Neurosci. 3:433-440, 1983). Rat cortical tissue is dissected and homogenized in 25 volumes (w/v) of 0.05 M Tris HCl buffer (pH 7.4 at 4° C.). The tissue homogenate is centrifuged in the cold (4°) at 20,000×g for 20′. The supernatant is decanted and the pellet is rehomogenized in the same volume of buffer and again centrifuged at 20,000×g. The supernatant is decanted and the pellet is frozen at −20° C. overnight. The pellet is then thawed and rehomogenized in 25 volume (original wt/vol) of buffer and the procedure is carried out twice. The pellet is finally resuspended in 50 volumes (w/vol of 0.05 M Tris HCl buffer (pH 7.4 at […]).
Incubations contain […] of tissue homogenate, […] of radioligand 0.5 nM (^3H-RO15-1788 [^3H-Flumazenil] specific activity 80 Ci/mmol), drug or blocker and buffer to a total volume of […]. Incubations are carried for 30 min at 4° C. then are rapidly filtered through GFB filters to separate free and bound ligand. Filters are washed twice with fresh 0.05 M Tris HCl buffer (pH 7.4 at 4° C.) and counted in a liquid scintillation counter. […] diazepam is added to some tubes to determine nonspecific binding. Data are collected in triplicate determinations, averaged and % inhibition of total specific binding is calculated. Total Specific Binding=Total−Nonspecific. In some cases, the amounts of unlabeled drugs is varied and total displacement curves of binding are carried out.

The results in this text go back to patent publication US6515140B2, “Fused pyrrolecarboxamides; a new class of GABA brain receptor ligands” (Neurogen Corporation, priority 1996, dated 2003).

pKi: −log10 of the molar value.

In general, pKi refers to the negative decadic logarithm of the Ki, by convention in mol/L. The term melting point denotes the temperature, or range, at which the solid turns liquid.

On to `O=C(Nc1ccc2c(c1)NCC2)c1c[nH]c2c1C(=O)CCC2` [Compound 13, N-(2,3-Dihydro-1H-indol-6-yl)-4-oxo-4,5,6,7-tetrahydro-1H-indole-3-carboxamide], for which the melting point lay within 322 to 323 °C. This compound also had a negative-log Ki (pKi) on GABAa receptor of 7.62.
